The values that follow come from patent publication US20240018108A1, “METHODS AND COMPOSITIONS FOR INHIBITION OF DIHYDROOROTATE DEHYDROGENASE” (OHIO STATE INNOVATION FOUNDATION, priority 2019, published 2024).

Assay [1] deals with MOLM13 cell line. Put plainly: MTS assay for cell growth/viability, MOLM13. Type of assay: cell-based. The settings on record: Homo sapiens. The procedure:
MTS assay for cell growth/viability: Mitochondrial activity was measured to determine cell proliferation using an MTS assay ([…]). Metabolically active cells convert MTS tetrazolium salt into a purple formazan product that is soluble in tissue culture medium. The amount of formazan measured at 490 nm absorbance is proportional to the number of proliferating cells. […] Triplicate wells were set up for each condition. At 96 hours, the MTS reagent was added and after approximately 4 hours the plates were read in a spectrophotometer.
(§1) Biological Activity: Cell proliferation assays were carried out using the MTS assay described herein using two AML cell lines (i.e., MOLM13 and OCI-AML3) with varied genetic backgrounds. The assays were carried out in a blinded fashion.
A general note: Tetrazolium assays rely on reduction of a dye to a coloured formazan, in cell work by metabolically active cells.

The test system of assay [2] is AML cell lines (MOLM13 and OCI-AML3). Put plainly: MTS cell proliferation assay, AML cell lines. Type of assay: cell-based. The settings on record: range over the two AML cell lines, one study; read-out: growth arrest in AML cell lines, IC50 range. The protocol:
(§2) MTS assay for cell growth/viability: Mitochondrial activity was measured to determine cell proliferation using an MTS assay ([…]). Metabolically active cells convert MTS tetrazolium salt into a purple formazan product that is soluble in tissue culture medium. The amount of formazan measured at 490 nm absorbance is proportional to the number of proliferating cells. MTS assays in AML cell lines were carried out with 20K cells plated per well in 96-well plates with Cpd3 or brequinar in a dose series ranging from 0.0001 to 10 μM. Triplicate wells were set up for each condition. At 96 hours, the MTS reagent was added and after approximately 4 hours the plates were read in a spectrophotometer.
as §1

Assay [3] relates to OCI-AML3 cell line. Put plainly: MTS assay for cell growth/viability, OCI-AML3. Type of assay: cell-based. As to conditions: Homo sapiens, OCI-AML-3, 96 hours, Table 2 (one study). The procedure: as §2, §1
Assay [4] addresses T1, h-DHODH (Homo sapiens, UniProt Q02127).
T1 construct: made in house
Put plainly: DHODH enzymatic assay (DCIP reduction). As to conditions: recombinant human enzyme, 25° C., pH 8.0. Type of assay: biochemical. The protocol:
DHODH Enzymatic Assay: DHODH activity was determined at 25° C. following the reduction of 2,6-dichloroindophenol sodium salt (DCIP) at 600 nm (ε=18 800 M^−1 cm^−1) on a spectrophotometer. The reaction medium used contained 50 mM Tris-HCl, pH 8.0, 0.1% Triton X-100, 0.1 mM LDHO, 0.025 mM CoQ1, and 0.06 mM DCIP. The reaction was started by addition of the enzyme. The inhibitory potency of the compounds was evaluated by measuring the initial velocity of the reaction either in the absence or in the presence of the compounds at the indicated concentrations. The DHODH enzyme used was the recombinant human enzyme prepared as previously described (Helene Munier-Lehmann, et al., J. Med. Chem. 2015, 58:860-877).

Setting [5] is: MOLM-13, Table 3 (second study), dose range of 2 nM to 10000 nM.

T1 sequence (Q02127 whole entry): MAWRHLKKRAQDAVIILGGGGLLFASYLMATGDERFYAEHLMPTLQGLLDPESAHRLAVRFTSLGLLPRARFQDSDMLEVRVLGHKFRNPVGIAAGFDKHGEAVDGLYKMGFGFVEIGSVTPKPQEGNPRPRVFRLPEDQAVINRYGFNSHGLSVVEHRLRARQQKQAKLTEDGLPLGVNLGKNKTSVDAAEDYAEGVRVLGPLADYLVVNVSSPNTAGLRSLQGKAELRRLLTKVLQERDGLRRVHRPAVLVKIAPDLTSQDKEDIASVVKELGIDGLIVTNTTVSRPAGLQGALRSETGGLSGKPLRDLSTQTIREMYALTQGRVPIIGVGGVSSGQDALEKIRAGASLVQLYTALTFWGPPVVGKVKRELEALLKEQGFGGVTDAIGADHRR

By IC50 is commonly meant the concentration that inhibits the measured activity by half. In the case of `CCOc1ccc(-c2ccc(-c3cc(C(=O)O)c4cc(F)ccc4n3)cc2F)cc1` [Cpd1, 2-(4′-ethoxy-2-fluoro-[1,1′-biphenyl]-4-yl)-6-fluoroquinoline-4-carboxylic acid], the IC50 was 14.5 nM in assay [1] (MOLM-13, 96 hours, Table 2 (one study)); 13 nM in assay [1] (setting [5]); 14.5 to 19.5 nM in assay [2]; 19.5 nM in assay [3]; 2.43 nM in assay [4].

Take `CCOc1cccc(-c2ccc(-c3cc(C(=O)O)c4cc(F)ccc4n3)cc2F)c1` [Cpd2, 2-(3′-ethoxy-2-fluoro-[1,1′-biphenyl]-4-yl)-6-fluoroquinoline-4-carboxylic acid]: the IC50 is 16 nM in assay [1] (setting [5]) and less than 0.5 nM in assay [4].

Regarding `CCCCOc1cccc(-c2ccc(-c3cc(C(=O)O)c4cc(F)ccc4n3)cc2F)c1` [Cpd3, 2-(3′-butoxy-2-fluoro-[1,1′-biphenyl]-4-yl)-6-fluoroquinoline-4-carboxylic acid], the IC50 in assay [1] (setting [5]) was 16 nM; in assay [4], less than 0.5 nM.

For the compound `O=C(O)c1cc(-c2ccc(-c3ccccc3)c(F)c2)nc2ccc(F)cc12` [Cpd4], the values for the IC50 in assay [1] (setting [5]) and in assay [4] were 41 nM and 0.72 nM, respectively.

For the compound `O=C(O)c1cc(-c2ccc(-c3ccccc3F)c(F)c2)nc2ccc(F)cc12` [Cpd5, 2-(2,2′-difluoro-[1,1′-biphenyl]-4-yl)-6-fluoroquinoline-4-carboxylic acid], the IC50 was determined as 14 nM in assay [1] (setting [5]) and 1.66 nM in assay [4].

Turning to `CCNc1ccc(-c2ccc(-c3cc(C(=O)O)c4cc(F)ccc4n3)cc2F)cc1` [Cpd6, 2-(4′-(ethylamino)-2-fluoro-[1,1′-biphenyl]-4-yl)-6-fluoroquinoline-4-carboxylic acid], the IC50 in assay [1] (setting [5]) is less than 2 nM; in assay [4], 1.34 nM.

On to `CCOc1ccc(-c2cc(F)c(-c3cc(C(=O)O)c4cc(F)ccc4n3)cc2F)cc1` [Cpd7, 2-(4′-ethoxy-2,5-difluoro-[1,1′-biphenyl]-4-yl)-6-fluoroquinoline-4-carboxylic acid], for which the IC50 in assay [1] (setting [5]) was less than 2 nM; in assay [4] it was 1.4 nM.

As to `CCOc1cccc(-c2cc(F)c(-c3cc(C(=O)O)c4cc(F)ccc4n3)cc2F)c1` [Cpd8, 2-(3′-ethoxy-2,5-difluoro-[1,1′-biphenyl]-4-yl)-6-fluoroquinoline-4-carboxylic acid], the results for the IC50 in assay [1] (setting [5]) and in assay [4] were less than 2 nM and less than 0.51 nM, respectively.

For the compound `CCOc1ccc(-c2ccc(-c3cc(C(=O)O)c4cc(F)ccc4n3)c(F)c2)cc1` [Cpd9, 2-(4′-ethoxy-3-fluoro-[1,1′-biphenyl]-4-yl)-6-fluoroquinoline-4-carboxylic acid], in assay [4], the IC50 turned out to be 5.5 nM.

For `CCOc1cccc(-c2ccc(-c3cc(C(=O)O)c4cc(F)ccc4n3)c(F)c2)c1` [Cpd10, 2-(3′-ethoxy-3-fluoro-[1,1′-biphenyl]-4-yl)-6-fluoroquinoline-4-carboxylic acid], the IC50 in assay [1] (setting [5]) was less than 2 nM; in assay [4], 0.7 nM.

In the case of `CCCCOc1cccc(-c2cc(F)c(-c3cc(C(=O)O)c4cc(F)ccc4n3)cc2F)c1` [Cpd11, 2-(3′-butoxy-2,5-difluoro-[1,1′-biphenyl]-4-yl)-6-fluoroquinoline-4-carboxylic acid], in assay [4], the IC50 is less than 0.51 nM.

As to `CCCCOc1cccc(-c2ccc(-c3cc(C(=O)O)c4cc(F)ccc4n3)c(F)c2)c1` [Cpd12, 2-(3′-butoxy-3-fluoro-[1,1′-biphenyl]-4-yl)-6-fluoroquinoline-4-carboxylic acid], the figures for the IC50 in assay [1] (setting [5]) and in assay [4] were less than 2 nM and 0.7 nM, respectively.

As to `CCOc1ccc(-c2ccc(-c3cc(C(=O)O)c4cc(F)ccc4n3)cc2C)cc1` [Cpd13, 2-(4′-ethoxy-2-methyl-[1,1′-biphenyl]-4-yl)-6-fluoroquinoline-4-carboxylic acid], the IC50 in assay [1] (setting [5]) was less than 2 nM; in assay [4], 1.5 nM.

Consider `CCOc1cccc(-c2ccc(-c3cc(C(=O)O)c4cc(F)ccc4n3)cc2C)c1` [Cpd14], for which the values for the IC50 in assay [1] (setting [5]) and in assay [4] were less than 2 nM and 1.4 nM, respectively.

For `CCOc1ccc(-c2ccc(-c3cc(C(=O)O)c4cc(F)ccc4n3)cc2OC)cc1` [Cpd15, 2-(4′-ethoxy-2-methoxy-[1,1′-biphenyl]-4-yl)-6-fluoroquinoline-4-carboxylic acid], the values for the IC50 in assay [1] (setting [5]) and in assay [4] were less than 2 nM and 4.2 nM, respectively.

Consider `CCOc1cccc(-c2ccc(-c3cc(C(=O)O)c4cc(F)ccc4n3)cc2OC)c1` [Cpd16, 2-(3′-ethoxy-2-methoxy-[1,1′-biphenyl]-4-yl)-6-fluoroquinoline-4-carboxylic acid], for which the values for the IC50 in assay [1] (setting [5]) and in assay [4] were less than 2 nM and 1.3 nM, respectively.

As to `CCOc1ccc(-c2cc(F)c(-c3cc(C(=O)O)c4cc(F)ccc4n3)c(F)c2)cc1` [Cpd17, 2-(4′-ethoxy-3,5-difluoro-[1,1′-biphenyl]-4-yl)-6-fluoroquinoline-4-carboxylic acid], the IC50 in assay [1] (setting [5]) came out at 43 nM; in assay [4], 6.2 nM.

`CCOc1cccc(-c2cc(F)c(-c3cc(C(=O)O)c4cc(F)ccc4n3)c(F)c2)c1` [Cpd18]: the IC50 in assay [1] (setting [5]) is less than 2 nM; in assay [4], 1.2 nM.

With `CCOc1ccc(-c2ccc(-c3cc(C(=O)O)c4cc(F)ccc4n3)cc2Cl)cc1` [Cpd19, 2-(2-chloro-4′-ethoxy-[1,1′-biphenyl]-4-yl)-6-fluoroquinoline-4-carboxylic acid], the IC50 is less than 2 nM in assay [1] (setting [5]) and 1.1 nM in assay [4].

In the case of `CCOc1cccc(-c2ccc(-c3cc(C(=O)O)c4cc(F)ccc4n3)cc2Cl)c1` [Cpd20, 2-(2-chloro-3′-ethoxy-[1,1′-biphenyl]-4-yl)-6-fluoroquinoline-4-carboxylic acid], the IC50 in assay [1] (setting [5]) was less than 2 nM; in assay [4], 0.6 nM.

Regarding `CCOc1ccc(-c2ccc(-c3cc(C(=O)O)c4cc(F)ccc4n3)c(C)c2)cc1` [Cpd21, 2-(4′-ethoxy-3-methyl-[1,1′-biphenyl]-4-yl)-6-fluoroquinoline-4-carboxylic acid], the IC50 in assay [1] (setting [5]) worked out at 538 nM; in assay [4], 11.6 nM.

Turning to `CCCCOc1cccc(-c2ccc(-c3cc(C(=O)O)c4cc(F)ccc4n3)c(C)c2)c1` [Cpd22, 2-(3′-butoxy-3-methyl-[1,1′-biphenyl]-4-yl)-6-fluoroquinoline-4-carboxylic acid], the IC50 in assay [1] (setting [5]) is 34 nM; in assay [4], less than 0.51 nM.

`CCOc1ccc(-c2ccc(-c3cc(C(=O)O)c4cc(F)ccc4n3)c(OC)c2)cc1` [Cpd23, 2-(4′-ethoxy-3-methoxy-[1,1′-biphenyl]-4-yl)-6-fluoroquinoline-4-carboxylic acid]: the IC50 in assay [1] (setting [5]) amounted to 532 nM; in assay [4] it was 16 nM.

Regarding `CCOc1ccc(-c2ccc(-c3cc(C(=O)O)c4cc(F)ccc4n3)c(Cl)c2)cc1` [Cpd24, 2-(3-chloro-4′-ethoxy-[1,1′-biphenyl]-4-yl)-6-fluoroquinoline-4-carboxylic acid], the IC50 in assay [1] (setting [5]) worked out at 464 nM; in assay [4], 22.2 nM.

Take `CCCCOc1cccc(-c2ccc(-c3cc(C(=O)O)c4cc(F)ccc4n3)cc2C)c1` [Cpd25, 2-(3′-butoxy-2-methyl-[1,1′-biphenyl]-4-yl)-6-fluoroquinoline-4-carboxylic acid]: the IC50 is less than 2 nM in assay [1] (setting [5]) and less than 0.51 nM in assay [4].

Regarding `CCCCOc1cccc(-c2ccc(-c3cc(C(=O)O)c4cc(F)ccc4n3)c(OC)c2)c1` [Cpd26, 2-(3′-butoxy-3-methoxy-[1,1′-biphenyl]-4-yl)-6-fluoroquinoline-4-carboxylic acid], the IC50 was found to be 11 nM in assay [1] (setting [5]) and 0.7 nM in assay [4].

For the compound `CCCCOc1cccc(-c2ccc(-c3cc(C(=O)O)c4cc(F)ccc4n3)c(Cl)c2)c1` [Cpd27], the IC50 in assay [1] (setting [5]) is 16 nM; in assay [4] it was less than 0.51 nM.
